Results: BigSolDB 2.1

CCn1c2ccccc2c2cc(-n3nncc3-c3ccccc3)ccc21
solubility (mole fraction)
Details | 278.15 K | 283.15 K | 288.15 K | 293.15 K | 298.15 K | 303.15 K | 308.15 K | 313.15 K | 318.15 K | 323.15 K
in acetonitrile | 0.00173 | 0.0022 | 0.00272 | 0.00336 | 0.00412 | 0.00505 | 0.00609 | 0.00733 | 0.00897 | 0.011
in ethanol | 0.000446 | 0.000546 | 0.000674 | 0.00084 | 0.00102 | 0.00124 | 0.00151 | 0.00183 | 0.0022 | 0.00262
in isopropanol | 0.000211 | 0.000278 | 0.000371 | 0.000491 | 0.000639 | 0.000825 | 0.00105 | 0.00135 | 0.00174 | 0.00224
in n-propanol | 0.000523 | 0.000671 | 0.000837 | 0.00103 | 0.0013 | 0.00161 | 0.002 | 0.00246 | 0.00297 | 0.00357
in water | 5.79e-07 | 7.99e-07 | 1.08e-06 | 1.46e-06 | 1.96e-06 | 2.61e-06 | 3.4e-06 | 4.49e-06 | 5.81e-06 | 7.48e-06
